According to US8815774B2, “Herbicidal composition and method of use thereof” (Syngenta Crop Protection LLC, priority 2006, dated 2014):

Tests used:
Format in all cases: in vivo
[1] = system: Trifolium repens (white clover); assay: Glasshouse trial, control of white clover, post-emergence application
Method: (§1) A glasshouse trial was carried out. Large crabgrass seeds were sown into standard glasshouse potting mix (1:1 v/v Promix:Vero sand soil) contained in 10 cm square plastic pots. Treatments were replicated three times. Mesotrione (in the form Callisto® 480SE) was applied pre-emergence to large crabgrass (Digitaria sanguinalis) at either 12 g ai/ha or 24 g ai/ha with or without sulfentrazone (in the form Authority®). When used, sulfentrazone was applied at a rate of 140 g ai/ha or 280 g ai/ha. The adjuvant system was X-77 at 0.1% v/v in deionised water. 200 litres of herbicide/adjuvant system was used per hectare. General weed control was evaluated at 7 days after treatment (DAT). It is noted that all herbicides were applied at reduced field rates because herbicide effects are magnified in a glasshouse environment. Rates were chosen to give a 50 to 70% level of control with herbicides applied alone as this allows for detection of any synergistic effect when tank mixtures are used.
(§2) It is noted that control of large crabgrass with the higher rate of mesotrione alone was too high to allow for detection synergy when mesotrione was mixed with sulfentrazone. The lower rate of mesotrione was therefore used in this analysis. […] The results were evaluated using the Colby formula. The expected result for (A+B) is (A+B)−(A×B/100) where A and B are the ‘observed’ results for A and B on their own.
(§3) A glasshouse trial was set up as described in Example 1, except using carfentrazone instead of sulfentrazone, Trifolium repens (white clover) instead of large crabgrass, and different herbicide rates.
A glasshouse trial was set up as described in Example 2, except using applying the mixture post emergence rather than pre-emergence.

[2] = system: Trifolium repens (white clover); assay: Glasshouse trial, control of white clover, pre-emergence application
Method: as §1, §2, §3

[3] = system: large crabgrass (Digitaria sanguinalis); assay: Glasshouse trial, control of large crabgrass, pre-emergence application
Method: as §1, with “used. It is noted that control of large crabgrass with the higher rate of mesotrione alone was too high to allow for detection synergy when mesotrione was mixed with sulfentrazone. The lower rate of mesotrione was therefore used in this analysis. […] The results were evaluated using the Colby formula. The expected result for (A+B) is (A+B)−(A×B/100) where A and B are the ‘observed’ results for A and B on their own.” for “used.”

[4] = carfentrazone 18 g ai/ha plus mesotrione 100 g ai/ha
[5] = carfentrazone 18 g ai/ha plus mesotrione 150 g ai/ha
[6] = carfentrazone 36 g ai/ha plus mesotrione 100 g ai/ha
[7] = carfentrazone 36 g ai/ha plus mesotrione 150 g ai/ha
[8] = carfentrazone 18 g ai/ha plus mesotrione 25 g ai/ha
[9] = carfentrazone 18 g ai/ha plus mesotrione 50 g ai/ha
[10] = carfentrazone 36 g ai/ha plus mesotrione 25 g ai/ha
[11] = carfentrazone 36 g ai/ha plus mesotrione 50 g ai/ha

Structure (SMILES)	Actual control, Plus Mesotrione at 100 g ai/ha [1, 4]	Expected control, Plus Mesotrione at 100 g ai/ha [1, 4]	Actual control, Plus Mesotrione at 150 g ai/ha [1, 5]	Expected control, Plus Mesotrione at 150 g ai/ha [1, 5]	Actual control, Plus Mesotrione at 100 g ai/ha [1, 6]	Expected control, Plus Mesotrione at 100 g ai/ha [1, 6]	Actual control, Plus Mesotrione at 150 g ai/ha [1, 7]	Expected control, Plus Mesotrione at 150 g ai/ha [1, 7]	Actual control, Plus Mesotrione at 25 g ai/ha [2, 8]	Expected control, Plus Mesotrione at 25 g ai/ha [2, 8]	Actual control, Plus Mesotrione at 50 g ai/ha [2, 9]	Expected control, Plus Mesotrione at 50 g ai/ha [2, 9]	Actual control, Plus Mesotrione at 25 g ai/ha [2, 10]	Expected control, Plus Mesotrione at 25 g ai/ha [2, 10]	Actual control, Plus Mesotrione at 50 g ai/ha [2, 11]	Expected control, Plus Mesotrione at 50 g ai/ha [2, 11]	synergy (Colby formula and Student-Newman-Keuls multiple range test) ([3]; mesotrione 12 g ai/ha with sulfentrazone 140 g ai/ha)	Expected control (Colby formula), Plus Mesotrione at 12 g ai/ha ([3]; sulfentrazone 140 g ai/ha plus mesotrione 12 g ai/ha, 7 DAT)	Actual control, Plus Mesotrione at 12 g ai/ha ([3]; sulfentrazone 140 g ai/ha tank mixed with mesotrione 12 g ai/ha, 7 DAT)	control of large crabgrass, herbicide on its own ([3]; sulfentrazone alone (lower rate, 140 g ai/ha), 7 DAT) [%]
Cc1nn(-c2cc(CC(Cl)C(=O)O)c(Cl)cc2F)c(=O)n1C(F)F (centres unmarked) [Carfentrazone]	70	43	93	65	72	53	93	71	55	50	75	62	73	49	85	61				
Cc1nn(-c2cc(NS(C)(=O)=O)c(Cl)cc2Cl)c(=O)n1C(F)F [Sulfentrazone, 2′,4′-dichloro-5′-(4-difluoromethyl-4,5-dihydro-3-methyl-5-oxo-1H-1,2,4-triazol-1-yl)methanesulfonanilide]																	synergy was seen	87.0	100	75
